Source: PMC8459971, “Evaluation of the hepatotoxicity of the novel GPR40 (FFAR1) agonist CPL207280 in the rat and monkey” (PLoS ONE, 2021)
Where “and” joins values, the source holds several entries; their conditions need not be identical. Identical values can stand only once.

Legend:
OATP1B3 = molecular target: T1, OATP1B3 (Homo sapiens, UniProt Q9NPD5); assay: Uptake transporter inhibition assay, OATP1B3
T1 sequence (Q9NPD5 1-702): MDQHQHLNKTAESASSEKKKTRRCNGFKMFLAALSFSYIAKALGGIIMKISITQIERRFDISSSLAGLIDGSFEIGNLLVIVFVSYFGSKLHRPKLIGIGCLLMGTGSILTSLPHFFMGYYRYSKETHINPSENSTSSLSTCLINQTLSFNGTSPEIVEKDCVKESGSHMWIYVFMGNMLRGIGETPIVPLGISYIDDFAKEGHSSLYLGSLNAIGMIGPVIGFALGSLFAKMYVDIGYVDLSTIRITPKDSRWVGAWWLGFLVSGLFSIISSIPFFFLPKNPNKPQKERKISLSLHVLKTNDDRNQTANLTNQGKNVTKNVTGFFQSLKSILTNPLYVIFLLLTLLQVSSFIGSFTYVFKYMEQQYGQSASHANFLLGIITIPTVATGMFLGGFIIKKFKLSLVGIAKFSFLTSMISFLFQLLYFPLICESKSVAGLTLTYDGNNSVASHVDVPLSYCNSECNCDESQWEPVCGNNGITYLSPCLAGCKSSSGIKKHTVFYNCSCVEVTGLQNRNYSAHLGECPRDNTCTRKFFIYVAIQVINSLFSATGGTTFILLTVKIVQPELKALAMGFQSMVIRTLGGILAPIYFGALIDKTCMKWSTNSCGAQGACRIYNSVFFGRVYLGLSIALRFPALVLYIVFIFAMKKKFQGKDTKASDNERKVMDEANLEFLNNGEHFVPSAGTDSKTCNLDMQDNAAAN
Procedure: (§2) For the uptake transporter inhibition assay, cells were washed twice with 100 μL of the appropriate buffer (HK, pH 7.4) for OATP1B1, followed by HBSS (pH 7.4) for (NTCP, OAT1, OAT2v1, OATP1A2, and OATP1B3). Uptake experiments were carried out at 37 ± 1°C in 50 μL of the respective buffer containing the probe substrate and the compound or solvent. […] After the experiment, cells were washed twice with 100 μL of cold appropriate buffer and lysed with 50 μL of 0.1 M NaOH. Radiolabeled probe substrate transport was determined by measuring an aliquot (35 μL) from each well for liquid scintillation counting.

[1] = Stability in microsomes, monkey; type: in vitro ADME; settings: for average DEG [%]: monkey microsomes, with cofactors
Procedure: (§1) The final incubation volume was 500 μL. Two control compounds (verapamil and donepezil) were included for each microsomal species, along with the appropriate vehicle control. The reactions were terminated by transferring 50 μL of incubate to 100 μL methanol containing an internal standard (metoprolol) at appropriate time points (0, 10, 20, 40, 60, and 120 min for the test compound and 0, 5, 10, 20, 40, and 60 min for the control compounds). The termination plates were centrifuged at 4000 x g at 4°C for 30 min to precipitate the protein. The supernatants were then collected for analysis, and LC-MS/MS was used for detection purposes. The system consisted of an Acquity™ Binary Solvent Manager, Acquity™ 4-position heated column manager, 2777 Ultra High Pressure Autosampler, and a Xevo-TQ MS triple quadrupole mass spectrometer (Waters Ltd., Herts, UK). This process was carried out twice.

OAT1 = molecular target: T2, OAT1 (Homo sapiens, UniProt Q4U2R8); assay: Uptake transporter inhibition assay, OAT1; settings: for Accumulation (counts per minute; CPM) HEK293FT-MOCK / Accumulation (counts per minute; CPM) HEK293FT-OAT1: OAT1;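 also: HEK293FT cells expressing OAT1 or mock, uptake of radiolabeled probe substrate at 37 °C in HBSS pH 7.4 with test compound or solvent, cell lysate read by liquid scintillation counting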
T2 sequence (Q4U2R8 1-563): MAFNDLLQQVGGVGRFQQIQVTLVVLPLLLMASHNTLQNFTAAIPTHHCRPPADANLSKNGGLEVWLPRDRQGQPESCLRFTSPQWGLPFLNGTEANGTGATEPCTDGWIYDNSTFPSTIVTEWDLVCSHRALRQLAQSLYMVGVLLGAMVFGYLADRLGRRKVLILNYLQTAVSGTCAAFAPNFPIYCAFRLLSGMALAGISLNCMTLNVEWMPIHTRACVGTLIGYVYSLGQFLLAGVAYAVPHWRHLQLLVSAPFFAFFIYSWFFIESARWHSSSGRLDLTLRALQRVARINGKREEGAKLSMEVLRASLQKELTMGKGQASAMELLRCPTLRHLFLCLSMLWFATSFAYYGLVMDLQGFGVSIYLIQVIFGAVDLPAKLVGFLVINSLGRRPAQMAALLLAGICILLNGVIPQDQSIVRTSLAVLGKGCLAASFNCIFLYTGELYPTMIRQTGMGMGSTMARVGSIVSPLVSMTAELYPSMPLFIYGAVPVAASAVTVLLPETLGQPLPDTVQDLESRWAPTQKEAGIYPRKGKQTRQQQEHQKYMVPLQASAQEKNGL
Procedure: as §2

BSEP = BSEP (Homo sapiens, UniProt O95342); assay: Vesicular transport inhibition assay, BSEP
BSEP, sequence (O95342 whole entry): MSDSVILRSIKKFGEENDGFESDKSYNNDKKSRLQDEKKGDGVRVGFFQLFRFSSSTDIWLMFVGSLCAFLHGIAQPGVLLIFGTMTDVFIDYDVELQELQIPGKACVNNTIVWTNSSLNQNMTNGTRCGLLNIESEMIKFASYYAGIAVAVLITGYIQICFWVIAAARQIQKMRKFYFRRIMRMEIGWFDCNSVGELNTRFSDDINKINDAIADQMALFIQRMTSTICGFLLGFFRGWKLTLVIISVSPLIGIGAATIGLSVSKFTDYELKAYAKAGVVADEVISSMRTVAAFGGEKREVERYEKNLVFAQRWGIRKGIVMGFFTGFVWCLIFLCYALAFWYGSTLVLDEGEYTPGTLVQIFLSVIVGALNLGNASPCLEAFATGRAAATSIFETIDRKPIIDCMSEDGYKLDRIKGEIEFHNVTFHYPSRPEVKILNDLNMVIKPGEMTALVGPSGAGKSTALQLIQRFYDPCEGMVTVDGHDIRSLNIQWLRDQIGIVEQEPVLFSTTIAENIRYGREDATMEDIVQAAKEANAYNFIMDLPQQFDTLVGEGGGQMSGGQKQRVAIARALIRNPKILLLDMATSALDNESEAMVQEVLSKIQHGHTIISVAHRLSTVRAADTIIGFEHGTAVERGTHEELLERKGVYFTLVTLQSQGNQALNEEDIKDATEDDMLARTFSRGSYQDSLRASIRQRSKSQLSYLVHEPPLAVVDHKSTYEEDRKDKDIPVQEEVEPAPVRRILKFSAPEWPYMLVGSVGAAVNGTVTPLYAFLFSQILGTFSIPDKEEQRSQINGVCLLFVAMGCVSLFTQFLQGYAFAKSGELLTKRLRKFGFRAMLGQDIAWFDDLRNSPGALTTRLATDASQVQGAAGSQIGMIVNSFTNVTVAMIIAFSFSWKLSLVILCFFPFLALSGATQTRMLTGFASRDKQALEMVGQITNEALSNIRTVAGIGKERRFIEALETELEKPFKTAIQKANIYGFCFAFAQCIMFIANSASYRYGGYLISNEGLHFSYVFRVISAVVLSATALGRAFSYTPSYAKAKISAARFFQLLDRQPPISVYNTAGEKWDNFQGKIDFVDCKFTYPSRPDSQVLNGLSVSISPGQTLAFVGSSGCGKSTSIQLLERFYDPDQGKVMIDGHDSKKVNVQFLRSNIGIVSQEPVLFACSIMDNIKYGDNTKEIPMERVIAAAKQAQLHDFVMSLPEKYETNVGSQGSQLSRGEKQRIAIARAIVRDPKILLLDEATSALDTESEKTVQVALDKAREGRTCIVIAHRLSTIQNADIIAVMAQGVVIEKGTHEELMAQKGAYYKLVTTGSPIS
Procedure: In the vesicular transport inhibition assay (for BSEP, MRP) compounds were incubated with membrane vesicle preparations and the probe substrate. Incubations were carried out in the presence of 4 mM ATP or AMP to distinguish between transporter-mediated uptake and passive diffusion into the vesicles. For MRP2 and MRP3, reactions were carried out in the presence of 2 mM glutathione. Compounds were added to the reaction mixture in 0.75 μL of solvent (1% of the final incubation volume). […] Reactions were initiated by the addition of 25 μL of 12 mM MgATP (or 12 mM AMP in assay buffer as a background control) and preincubated separately. Reactions were quenched by the addition of 200 μL of ice-cold washing buffer and immediate filtration via glass fiber filters mounted on a 96-well plate (filter plate). The filters were washed (5 × 200 μL of ice-cold washing buffer), dried, and the amount of substrate inside the filtered vesicles was determined by liquid scintillation counting.

in vivo = settings: both, Wistar Han, rat, 600 mg/kg, 14 days
HepG2 cells = assay: Respiration in hepatocytes (Seahorse XF Mito stress test); type: cell-based, human
[2] = Stability in microsomes, rat; type: in vitro ADME; settings: for average DEG [%]: rat microsomes, with cofactors
Procedure: as §1

[3] = Monkey (Cynomolgus) microsomes, mean n = 2
[4] = Rat (Sprague Dawley) microsomes, mean n = 2

SMILES: Cc1cc(OCCCS(C)(=O)=O)cc(C)c1-c1cccc(COc2ccc3c(c2)OC[C@H]3CC(=O)O)c1 [TAK-875, fasiglifam, reference compound]
- IC50 (OATP1B3): 3.44 µM
- half-life at 3 μM [1, 3]: 0.5 h
- microsomal CLint at 3 μM [1, 3]: 39.2 µL/min/mg
- average DEG [%] ([1]; 0 min): 100.0%
- average DEG [%] ([1]; 20 min): 61.2%
- average DEG [%] ([1]; 40 min): 37.2%
- average DEG [%] ([1]; 60 min): 32.0%
- IC50 (OAT1): 34.8 µM
- Accumulation (counts per minute; CPM) HEK293FT-MOCK (OAT1; conc 0.10 µM): 34 CPM and 47 CPM
- Accumulation (counts per minute; CPM) HEK293FT-OAT1 (OAT1; conc 0.10 µM): 3883 CPM and 3843 CPM
- Accumulation (counts per minute; CPM) HEK293FT-MOCK (OAT1; conc 0.30 µM): 36 CPM and 29 CPM
- Accumulation (counts per minute; CPM) HEK293FT-OAT1 (OAT1; conc 0.30 µM): 3654 CPM and 3608 CPM
- Accumulation (counts per minute; CPM) HEK293FT-MOCK (OAT1; conc 1.00 µM): 32 CPM and 37 CPM
- Accumulation (counts per minute; CPM) HEK293FT-OAT1 (OAT1; conc 1.00 µM): 3568 CPM and 3527 CPM
- Accumulation (counts per minute; CPM) HEK293FT-MOCK (OAT1; conc 3.00 µM): 36 CPM and 37 CPM
- Accumulation (counts per minute; CPM) HEK293FT-OAT1 (OAT1; conc 3.00 µM): 3226 CPM and 3417 CPM
- Accumulation (counts per minute; CPM) HEK293FT-MOCK (OAT1; conc 10.00 µM): 34 CPM and 39 CPM
- Accumulation (counts per minute; CPM) HEK293FT-OAT1 (OAT1; conc 10.00 µM): 3074 CPM and 3122 CPM
- Accumulation (counts per minute; CPM) HEK293FT-MOCK (OAT1; conc 30.00 µM): 36 CPM and 39 CPM
- Accumulation (counts per minute; CPM) HEK293FT-OAT1 (OAT1; conc 30.00 µM): 1739 CPM and 1807 CPM
- Accumulation (counts per minute; CPM) HEK293FT-MOCK (OAT1; conc 100.00 µM): 33 CPM and 31 CPM
- Accumulation (counts per minute; CPM) HEK293FT-OAT1 (OAT1; conc 100.00 µM): 496 CPM and 493 CPM
- Accumulation (counts per minute; CPM) HEK293-BSEP (BSEP; conc 0.41 µM): 11727 CPM and 12245 CPM and 11981 CPM
- Accumulation (counts per minute; CPM) HEK293-MOCK (BSEP; conc 0.41 µM): 463 CPM and 375 CPM and 363 CPM
- Accumulation (counts per minute; CPM) HEK293-BSEP (BSEP; conc 1.23 µM): 11757 CPM and 12666 CPM and 12491 CPM
- Accumulation (counts per minute; CPM) HEK293-MOCK (BSEP; conc 1.23 µM): 465 CPM and 378 CPM and 379 CPM
- Accumulation (counts per minute; CPM) HEK293-BSEP (BSEP; conc 3.70 µM): 11540 CPM and 12190 CPM and 12485 CPM
- Accumulation (counts per minute; CPM) HEK293-MOCK (BSEP; conc 3.70 µM): 406 CPM and 443 CPM and 391 CPM
- Accumulation (counts per minute; CPM) HEK293-BSEP (BSEP; conc 11.11 µM): 11930 CPM and 12790 CPM and 12439 CPM
- Accumulation (counts per minute; CPM) HEK293-MOCK (BSEP; conc 11.11 µM): 450 CPM and 398 CPM and 437 CPM
- Accumulation (counts per minute; CPM) HEK293-BSEP (BSEP; conc 33.33 µM): 10294 CPM and 11069 CPM and 10674 CPM
- Accumulation (counts per minute; CPM) HEK293-MOCK (BSEP; conc 33.33 µM): 418 CPM and 356 CPM and 425 CPM
- Accumulation (counts per minute; CPM) HEK293-BSEP (BSEP; conc 100 µM): 6186 CPM and 6483 CPM and 6458 CPM
- Accumulation (counts per minute; CPM) HEK293-MOCK (BSEP; conc 100 µM): 375 CPM and 361 CPM and 372 CPM
- exposure exceeding the CPL207280 exposure (in vivo): 200%
- oxygen consumption rate, mito stress tracing (HepG2 cells; Fig2 B, HepG2, 0,3 uM, 61.3509 min): 201.605
- ECAR (Extracellular Acidification Rate) (HepG2 cells; HepG2, 30 uM, replicates): 1.734
- effect on maximal respiratory capacity after FCCP (HepG2 cells; HepG2, Seahorse XF): dose-dependent reduction in maximal respiratory capacity
- EC50 (HepG2 cells; Homo sapiens, HepG2, Seahorse XF, read-out: EC50 of acidification of media (ECAR)): 46 µM
- half-life at 3 μM [2, 4]: 1.98 h
- microsomal CLint at 3 μM [2, 4]: 11.6 µL/min/mg
- average DEG [%] ([2]; 0 min): 100.0%
- average DEG [%] ([2]; 20 min): 81.3%
- average DEG [%] ([2]; 40 min): 79.5%
- average DEG [%] ([2]; 60 min): 68.4%
